# Laboratory results: paper PMC8509773, “3-Pyridinylidene Derivatives of Chemically Modified Lupane and Ursane Triterpenes as Promising Anticancer Agents by Targeting Apoptosis” (International Journal of Molecular Sciences, 2021)
# How the values were obtained:
# Experiment in all cases: NCI-60 SRB screening (one-dose and five-dose)
# Type in all cases: cell-based, human
# M14 = conditions: 48 h
# Experimental: (§1) The compounds were added at a single concentration and the cell cultures were incubated for 48 h. The end point determinations were made with a protein binding dye, sulforhodamine B (SRB). […] The percentage of growth was evaluated spectrophotometrically versus controls not treated with test agents after 48-h exposure and using SRB protein assay to estimate cell viability or growth. […] Furthermore, mean graph midpoints (MG_MID) were calculated for each of the parameters, giving an average activity parameter over all cell lines for the tested compound. For the MG_MID calculation, insensitive cell lines were included with the highest concentration tested.
# A498 = conditions: Homo sapiens; A498, five dose 0.01–100 μM, 48 h
# Experimental: as §1
# RPMI-8226 = conditions: 48 h
# Experimental: as §1
# OVCAR-8 = conditions: 48 h
# Experimental: as §1
# SK-MEL-28 = conditions: 48 h
# Experimental: as §1
# SK-OV-3 = conditions: 48 h
# Experimental: as §1
# NCI-H23 = conditions: 48 h
# Experimental: as §1
# OVCAR-3 = conditions: 48 h
# Experimental: as §1
# KM-12 = conditions: 48 h
# Experimental: as §1
# HOP-92 = conditions: 48 h
# Experimental: as §1
# SR = conditions: 48 h
# Experimental: as §1
# HCT-15 = conditions: 48 h
# Experimental: as §1
# NCI-H226 = conditions: 48 h
# Experimental: as §1
# MDA-MB-468 = conditions: 48 h
# Experimental: as §1
# PC-3 = conditions: 48 h
# Experimental: as §1
# OVCAR-5 = conditions: 48 h
# Experimental: as §1
# U251 = conditions: 48 h
# Experimental: as §1
# NCI-H460 = conditions: 48 h
# Experimental: as §1
# HCC-2998 = conditions: 48 h
# Experimental: as §1
# HL-60(TB) = conditions: 48 h
# Experimental: as §1
# SK-MEL-2 = conditions: 48 h
# Experimental: as §1
# MCF7 = conditions: 48 h
# Experimental: as §1
# HS 578T = conditions: 48 h
# Experimental: as §1
# K-562 = conditions: 48 h
# Experimental: as §1
# MDA-MB-231/ATCC = conditions: 48 h
# Experimental: as §1
# BT-549 = conditions: 48 h
# Experimental: as §1
# HOP-62 = conditions: 48 h
# Experimental: as §1
# SF-295 = conditions: 48 h
# Experimental: as §1
# IGROV1 = conditions: 48 h
# Experimental: as §1
# UACC-62 = conditions: 48 h
# Experimental: as §1
# NCI/ADR-RES = conditions: 48 h
# Experimental: as §1
# CAKI-1 = conditions: 48 h
# Experimental: as §1
# SNB-19 = conditions: 48 h
# Experimental: as §1
# LOX IMVI = conditions: 48 h
# Experimental: as §1
# HT29 = conditions: 48 h
# Experimental: as §1
# SW-620 = conditions: 48 h
# Experimental: as §1
# NCI-H522 = conditions: 48 h
# Experimental: as §1
# RXF 393 = conditions: 48 h
# Experimental: as §1
# TK-10 = conditions: TK-10, 10 μM, 48 h
# Experimental: as §1
# NCI-H322M = conditions: 10 μM, 48 h
# Experimental: as §1
# [1] = Homo sapiens, five dose 0.01–100 μM
smiles,measurement,setting,value
"COc1cccc2c1C(=O)c1c(O)c3c(c(O)c1C2=O)C[C@@](O)(C(=O)CO)C[C@@H]3O[C@H]1C[C@H](N)[C@H](O)[C@H](C)O1 [Doxorubicin, reference compound]",GI50,"M14; Homo sapiens, M14, five dose 0.01–100 μM",180 nM
same,GI50,A498,100 nM
same,GI50,"RPMI-8226; Homo sapiens, RPMI-8226, five dose 0.01–100 μM",80 nM
same,GI50,"OVCAR-8; Homo sapiens, OVCAR-8, five dose 0.01–100 μM",100 nM
same,GI50,"SK-MEL-28; Homo sapiens, SK-MEL-28, five dose 0.01–100 μM",210 nM
same,GI50,"SK-OV-3; Homo sapiens, SK-OV-3, five dose 0.01–100 μM",220 nM
same,GI50,"NCI-H23; Homo sapiens, NCI-H23, five dose 0.01–100 μM",150 nM
same,GI50,"OVCAR-3; Homo sapiens, OVCAR-3, five dose 0.01–100 μM",390 nM
same,GI50,"KM-12; Homo sapiens, KM12, KM-12, five dose 0.01–100 μM",270 nM
same,GI50,"HOP-92; Homo sapiens, HOP-92, five dose 0.01–100 μM",100 nM
same,GI50,SR; [1],30 nM
same,GI50,"HCT-15; Homo sapiens, HCT-15, five dose 0.01–100 μM",6460 nM
same,GI50,"NCI-H226; Homo sapiens, NCI-H226, five dose 0.01–100 μM",50 nM
same,GI50,"MDA-MB-468; Homo sapiens, MDA-MB-468, five dose 0.01–100 μM",50 nM
same,GI50,"PC-3; Homo sapiens, PC-3, five dose 0.01–100 μM",320 nM
same,GI50,"OVCAR-5; Homo sapiens, OVCAR-5, five dose 0.01–100 μM",410 nM
same,GI50,"U251; Homo sapiens, U-251, U251, five dose 0.01–100 μM",40 nM
same,GI50,"NCI-H460; Homo sapiens, NCI-H460, five dose 0.01–100 μM",20 nM
same,GI50,"HCC-2998; Homo sapiens, HCC-2998, five dose 0.01–100 μM",260 nM
same,GI50,HL-60(TB); [1],120 nM
same,GI50,"SK-MEL-2; Homo sapiens, SK-MEL-2, five dose 0.01–100 μM",170 nM
same,GI50,"MCF7; Homo sapiens, MCF7, five dose 0.01–100 μM",30 nM
same,GI50,HS 578T; [1],330 nM
same,GI50,"K-562; Homo sapiens, K562, K-562, five dose 0.01–100 μM",190 nM
same,GI50,MDA-MB-231/ATCC; [1],510 nM
same,GI50,"BT-549; Homo sapiens, BT-549, five dose 0.01–100 μM",230 nM
same,GI50,"HOP-62; Homo sapiens, HOP-62, five dose 0.01–100 μM",70 nM
same,GI50,"SF-295; Homo sapiens, SF-295, five dose 0.01–100 μM",100 nM
same,GI50,"IGROV1; Homo sapiens, IGROV-1, IGROV1, five dose 0.01–100 μM",170 nM
same,GI50,"UACC-62; Homo sapiens, UACC-62, five dose 0.01–100 μM",120 nM
same,GI50,NCI/ADR-RES; [1],7160 nM
same,GI50,"CAKI-1; Homo sapiens, CAKI-1, five dose 0.01–100 μM",950 nM
same,GI50,"SNB-19; Homo sapiens, SNB-19, five dose 0.01–100 μM",40 nM
same,GI50,LOX IMVI; [1],70 nM
same,GI50,"HT29; Homo sapiens, HT-29, HT29, five dose 0.01–100 μM",120 nM
same,GI50,"SW-620; Homo sapiens, SW-620, five dose 0.01–100 μM",90 nM
same,GI50,"NCI-H522; Homo sapiens, NCI-H522, five dose 0.01–100 μM",30 nM
same,GI50,"RXF 393; Homo sapiens, RXF 393, five dose 0.01–100 μM",100 nM
CC(=O)O[C@H]1CC[C@]2(C)[C@H]3CC[C@@H]4[C@H]5[C@H](C)[C@@]6(C)OC[C@]5(CC[C@@]4(C)[C@]3(C)CC[C@H]2C1(C)C)CC6C(C)=O (some centres unmarked) [Compound 1],Growth Percent,"M14; M14, 10 μM",74.76%
same,Growth Percent,"RPMI-8226; RPMI-8226, 10 μM",47.53%
same,Growth Percent,"OVCAR-8; OVCAR-8, 10 μM",92.52%
same,Growth Percent,TK-10,109.75%
same,Growth Percent,"SK-MEL-28; SK-MEL-28, 10 μM",80.73%
same,Growth Percent,"SK-OV-3; SK-OV-3, 10 μM",98.97%
same,Growth Percent,"NCI-H23; NCI-H23, 10 μM",84.77%
same,Growth Percent,"OVCAR-3; OVCAR-3, 10 μM",84.02%
same,Growth Percent,"KM-12; KM-12, 10 μM",78.19%
same,Growth Percent,"HOP-92; HOP-92, 10 μM",70.21%
same,Growth Percent,SR; 10 μM,62.46%
same,Growth Percent,"HCT-15; HCT-15, 10 μM",38.30%
same,Growth Percent,"NCI-H226; NCI-H226, 10 μM",91.65%
same,Growth Percent,"MDA-MB-468; MDA-MB-468, 10 μM",57.26%
same,Growth Percent,"PC-3; PC-3, 10 μM",48.79%
same,Growth Percent,"OVCAR-5; OVCAR-5, 10 μM",97.46%
same,Growth Percent,"U251; U251, 10 μM",77.27%
same,Growth Percent,"NCI-H460; NCI-H460, 10 μM",84.90%
same,Growth Percent,"HCC-2998; HCC-2998, 10 μM",92.22%
same,Growth Percent,HL-60(TB); 10 μM,39.32%
same,Growth Percent,"SK-MEL-2; SK-MEL-2, 10 μM",92.21%
same,Growth Percent,"MCF7; MCF7, 10 μM",56.74%
same,Growth Percent,HS 578T; 10 μM,98.58%
same,Growth Percent,NCI-H322M,95.70%
same,Growth Percent,"K-562; K-562, 10 μM",39.40%
same,Growth Percent,MDA-MB-231/ATCC; 10 μM,88.35%
same,Growth Percent,"BT-549; BT-549, 10 μM",96.17%
same,Growth Percent,"HOP-62; HOP-62, 10 μM",100.79%
same,Growth Percent,"SF-295; SF-295, 10 μM",96.73%
same,Growth Percent,"IGROV1; IGROV1, 10 μM",51.77%
same,Growth Percent,"UACC-62; UACC-62, 10 μM",49.11%
same,Growth Percent,NCI/ADR-RES; 10 μM,96.25%
same,Growth Percent,"CAKI-1; CAKI-1, 10 μM",74.02%
same,Growth Percent,"SNB-19; SNB-19, 10 μM",88.73%
same,Growth Percent,LOX IMVI; 10 μM,58.17%
same,Growth Percent,"HT29; HT29, 10 μM",80.13%
same,Growth Percent,"SW-620; SW-620, 10 μM",68.02%
same,Growth Percent,"NCI-H522; NCI-H522, 10 μM",75.59%
same,Growth Percent,"RXF 393; RXF 393, 10 μM",89.49%
